Reference: patent US9974776B2, “Estrogen receptor beta agonists for use in treating mesothelioma” (Karo Pharma AB, priority 2013, dated 2018)

Assays:
PARP1 cleavage = assay: Western blot of PARP1 cleavage in MET5A cells; assay type: cell-based; details: 10 nM 2 hours pre-treatment, cisplatin 25, 50, 100 μM
Description: (§1) Cells were extracted with 1% NP-40 lysis buffer (1% NP-40, 150 mM NaCl, 50 mM Tris-HCl pH 8.5 mM EDTA, 10 mM NaF, 10 mM Na4P2O7, 0.4 mM Na3VO4) with freshly added protease inhibitors (10 μg/ml leupeptin, 4 μg/ml pepstatin and 0.1 Unit/ml aprotinin). For protein extraction from tissues, ˜100 mg of each sample were homogenized, using a Potter-Elvehjem homogenizer device, in 1% NP-40 lysis buffer. Lysates were centrifuged at 13.000×g for 10 minutes at 4° C. and the supernatants were collected and assayed for protein concentration with the Bio-Rad protein assay method.
(§2) Proteins were separated by SDS-PAGE under reducing conditions. Following SDS-PAGE, proteins were transferred to nitrocellulose, reacted with specific antibodies and then detected with peroxidase-conjugate secondary antibodies and chemioluminescent ECL reagent. Densitometric analysis was performed using the GS 250 Molecular Image (Bio-Rad).
Levels of PARP1, cleaved PARP1, AKT and phosphorylated AKT in the MET5A cell cultures at 24 hours were also determined by Western blot analysis and relative densitometry.

MMB cells = assay: Proliferation assay in MMB cells; assay type: cell-based; details: 10 nM single agent, 24 and 48 hours
Description: (§3) Cells were seeded at a density of 10×10^4 cells/well in 6-well plates in RPMI medium supplemented with 10% FBS, 100 μg/ml streptomycin and 10 μg/ml penicillin and incubated over-night at 37° C. in a humidified environment containing 5% CO2 to allow adherence. Following treatment cells were trypsinized and stained with Trypan blue. The number of cells considered viable (unstained cells) was counted in a Bürker haemocytometer within 5 minutes after staining.

REN cells [1] = assay: Cell cycle analysis (propidium iodide, flow cytometry) in REN cells; assay type: cell-based, human; details: 10 nM 2 hours pre-treatment, then 100 μM cisplatin 24 hours
Description: For cell cycle/apoptosis analysis, 5×10^5 cells were seeded in tissue culture plates and treated with 100 μM cisplatin for 24 hours or pre-treated for 2 hours with 10 nM Compound (I) followed by wash-off and continued growth in normal medium±100 μM cisplatin, for additional 24 hours at 37° C. in a 5% CO2 atmosphere. After incubation, detached and suspended cells were harvested in complete RPMI and centrifuged at 500×g for 10 minutes. Pellets were washed with PBS, fixed in ice-cold 75% ethanol at 4° C., treated with […] RNAse A for 1 hour at 37° C., stained with 25 μg/mL propidium iodide and finally analyzed by using a flow cytometer FACS (Becton Dickinson, San Jose, Calif., USA) and Modfit software (Verity Software House, Topsham, Me., USA).
REN cells were treated for 24 hours with 100 μM cisplatin or pre-treated 2 hours with 10 nM Compound (I) followed by wash-off and continued growth in normal medium±100 μM cisplatin, for an additional 24 hours. Cell cycle analysis was performed as described above. Control cultures were maintained in normal growth medium. After treatments, cells were stained with propidium iodide and analysed for cellular DNA content by flow cytometry.

AKT phosphorylation = assay: Western blot of AKT phosphorylation in REN cells; assay type: cell-based, human; details: 10 nM 2 hours pre-treatment, ± cisplatin
Description: as §1, §2
Levels of PARP1, cleaved PARP1, AKT and phosphorylated AKT in REN cells treated for 24 hours with cisplatin (25, 50 and 100 μM) or pre-treated 2 hours with Compound (I) (10 nM) followed by wash-off and continued growth in normal medium±cisplatin (25, 50 and 100 μM), for an additional 24 hours were also determined by Western blot analysis and relative densitometry. […] PARP1 cleavage was analysed as it is an indicator of apoptotic cell death. […]

MSTO-211H/ERβ cells = assay: Proliferation assay in MSTO-211H cells transfected with ERβ expression vector; assay type: cell-based; details: 10 nM, 24 and 48 hours; transient transfection with ERβ expression vector
Excerpt: The epithelioid MPM derived REN cell line was isolated, characterized and provided by Dr. Albelda S. M. (University of Pennsylvania, Philadelphia; PA, USA). The biphasic MSTO-211H and the mesothelial MET5A cell lines were obtained from the Istituto Scientifico Tumori (IST) Cell-bank, Genoa, Italy; the MMB and MMP cell lines have been derived from pleural effusions of patients with MPM and stabilized in culture (Cacciotti P, et al., Proc Natl Acad Sci USA 2001; 98:12032-7; Pinton G., et al, Cancer Res 2009; 69:4598-604); the H2596 cell line was produced by Dr. H. I. Pass from surgical specimens derived from patients with resected MPM (Pass H. I., et al., Ann Thorac Surg 1995; 59(4):835-44). Cells were grown in RPMI medium supplemented with 10% FBS, […] streptomycin and 10 μg/ml penicillin at 37° C. in a humidified environment containing 5% CO2. Mycoplasma infection was excluded by the use of Mycoplasma Plus™ PCR Primer Set kit from Stratagene (La Jolla, Calif., USA). […]
as §3, with “Following treatment cells were trypsinized and stained with Trypan blue.” left out

REN cells [2] = assay: Proliferation assay (Trypan blue viable cell count; wash-off and add-on experiments) in REN cells; assay type: cell-based, human
Description: as §3
Control cultures were maintained in normal growth medium without added drug. The number of viable cells was determined as described for the proliferation assay.
In the add-on experiments the second drug was added directly to the cell culture medium without wash-off of the first drug. […] Control cultures were maintained in normal growth medium without added drug. The number of viable cells was determined as described for the proliferation assay.

Cc1noc(C)c1-c1c(/C(N)=N/O)c2ccccc2n1-c1ccc(O)cc1 [Compound (I)]
percentage of cleaved PARP1 in MET5A cells (PARP1 cleavage): reduced the percentage of cleaved PARP1 in cells exposed to all concentrations of cisplatin
inhibition of proliferation, MMB cells (MMB cells): significantly (p≤0.05) inhibited proliferation
cell cycle phase distribution (REN cells [1]): significant and efficient blockage of the cell cycle in the G0/G1 phase and inhibition of cells entering the S-phase
percentage of dead cells (REN cells [1]): significant higher percentage of dead cells
AKT phosphorylation in REN cells (AKT phosphorylation): significantly reduced AKT phosphorylation both in the absence and in the presence of cisplatin
inhibition of proliferation, MSTO-211H/ERβ cells (MSTO-211H/ERβ cells): sensitized these cells to Compound (I)
anti-proliferative effect, pre-treatment then 20 μM cisplatin (REN cells [2]; 10 nM 2 hours, wash-off, 20 μM cisplatin for additional 24 hours): as efficacious as 100 μM cisplatin alone
inhibitory effect on cell growth and viability, pre-treatment then cisplatin/pemetrexed (REN cells [2]; 10 nM 2 hours, wash-off, cisplatin 100 μM and pemetrexed 22 μM for additional 24 hours): strong synergistic inhibitory effect on cell growth and viability
inhibitory effect on cell growth and viability, pre-treatment then cisplatin (REN cells [2]; 10 nM 2 hours, wash-off, cisplatin 100 μM for additional 24 hours): strong synergistic inhibitory effect on cell growth and viability
anti-proliferative effect, pre-treatment then cisplatin 20-100 μM (REN cells [2]; 10 nM 2 hours, wash-off, cisplatin for additional 24 hours): most efficacious anti-proliferative effect was observed when Compound (I) pre-treatment was combined with the highest concentration of cisplatin (100 μM)
enhancement of anti-proliferative effect of pemetrexed (REN cells [2]; 10 nM 2 hours, wash-off, pemetrexed 5-22 μM for additional 24 hours): No enhanced anti-proliferative effect
synergy when cisplatin is given first (reverse order) (REN cells [2]; 10 nM Compound (I) added 2, 4, 8, 12 hours after start of 100 μM cisplatin, 24 hours): did not result in synergistic inhibition of cell growth and viability
growth inhibition versus single agents, cisplatin given first (REN cells [2]; 10 nM Compound (I) added after 100 μM cisplatin, 24 hours): greater growth inhibition than cells treated with only one of the agents
inhibition of proliferation, REN cells (REN cells [2]; 10 nM single agent, 24 and 48 hours): significantly (p≤0.05) inhibited proliferation
growth inhibitory activity after brief exposure and wash-off (REN cells [2]; 10 nM, 2 hours exposure, total incubation 24 hours): significantly (p≤0.05) increased growth inhibitory activity relative to 1 hour exposure and exposures longer than 8 hours
enhancement of anti-proliferative effect of cisplatin, add-on experiment (REN cells [2]; 100 μM cisplatin added 2, 4, 8, 12 hours after start of 10 nM Compound (I), 24 hours): greatest inhibitory effect obtained when adding cisplatin after 2 hours of Compound (I) pre-treatment
concentration dependence of anti-proliferative effect after 2 hours pre-treatment (REN cells [2]; 0.4, 2 and 10 nM, wash-off, 24-72 hours): largest anti-proliferative effect was observed with the highest Compound (I) concentration used
duration of inhibitory effect on REN cell proliferation (REN cells [2]; 2-hours pre-treatment with 0.4, 2 or 10 nM, wash-off, irrespective of concentration): at least 24 hours
growth inhibition of REN cells (REN cells [2]; 24 hours treatment, range 1-100 nM, versus untreated cells): significantly (p≤0.05) reduced cell growth and viability in a dose-dependent manner
dose of highest efficacy for growth inhibition (REN cells [2]; REN cells, 24 hours, range 1-100 nM tested): 10 nM
isobologram analysis of combination with cisplatin (REN cells [2]; analysis of Example 4(b) results (FIG. 4F)): synergistic effect
